According to ChEMBL document CHEMBL1201862, “PubChem BioAssay data set” (2004):
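Step 1: Grow cells in 96-well plates. Step 2: Expose to compound for 48 hours at 5 concentrations. Step 3: Interpolate endpoints linearly; if unreached, use highest concentration. The concentration for 50% growth inhibition is given as GI50.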 The source made the active and inactive calls. Rule as the data show it: active = GI50 up to about 1.1 µM and inactive = higher.

Key:
Test in all cases: growth of human tumour cells (NCI), 48 h
786-0 = test system: 786-0
A498 = test system: A498
A549 = test system: A549
ACHN = test system: ACHN
BT-549 = test system: BT-549
CAKI-1 = test system: CAKI-1
CCRF-CEM = test system: CCRF-CEM
COLO 205 = test system: COLO 205
DU-145 = test system: DU-145
EKVX = test system: EKVX
HCT-116 = test system: HCT-116
HCT-15 = test system: HCT-15
HL-60 = test system: HL-60
HOP-62 = test system: HOP-62
HOP-92 = test system: HOP-92
HT-29 = test system: HT-29
Hs-578T = test system: Hs-578T
IGROV-1 = test system: IGROV-1
K562 = test system: K562
KM12 = test system: KM12
LOX IMVI = test system: LOX IMVI
M14 = test system: M14
MCF7 = test system: MCF7
MDA-MB-231 = test system: MDA-MB-231
MDA-MB-435 = test system: MDA-MB-435
MDA-N = test system: MDA-N
MOLT-4 = test system: MOLT-4
NCI-H226 = test system: NCI-H226
NCI-H23 = test system: NCI-H23
NCI-H460 = test system: NCI-H460
NCI-H522 = test system: NCI-H522
NCI/ADR-RES = test system: NCI/ADR-RES
OVCAR-3 = test system: OVCAR-3
OVCAR-4 = test system: OVCAR-4
OVCAR-5 = test system: OVCAR-5
OVCAR-8 = test system: OVCAR-8
PC-3 = test system: PC-3
RPMI-8226 = test system: RPMI-8226
SF-268 = test system: SF-268
SF-295 = test system: SF-295
SK-MEL-28 = test system: SK-MEL-28
SK-MEL-2 = test system: SK-MEL-2
SK-MEL-5 = test system: SK-MEL-5
SN12C = test system: SN12C
SNB-19 = test system: SNB-19
SW-620 = test system: SW-620
T47D = test system: T47D
TK-10 = test system: TK-10
U-251 = test system: U-251
UACC-257 = test system: UACC-257
UACC-62 = test system: UACC-62
UO-31 = test system: UO-31
HCC 2998 = test system: HCC 2998
Malme-3M = test system: Malme-3M
RXF 393 = test system: RXF 393
SF-539 = test system: SF-539
SK-OV-3 = test system: SK-OV-3
SNB-75 = test system: SNB-75

SMILES: COc1cc(NS(C)(=O)=O)ccc1N1Cc2c[nH]c3ccc4nccc1c4c23
- GI50 (786-0): 30.8 µM (inactive)
- GI50 (A498): 38.5 µM (inactive)
- GI50 (A549): > 100 µM (inactive)
- GI50 (ACHN): > 100 µM (inactive)
- GI50 (BT-549): 42.9 µM (inactive)
- GI50 (CAKI-1): > 100 µM (inactive)
- GI50 (CCRF-CEM): 25.5 µM (inactive)
- GI50 (COLO 205): 26.7 µM (inactive)
- GI50 (DU-145): 42.5 µM (inactive)
- GI50 (EKVX): > 100 µM (inactive)
- GI50 (HCT-116): 26.6 µM (inactive)
- GI50 (HCT-15): > 100 µM
- GI50 (HL-60): 23.6 µM (inactive)
- GI50 (HOP-62): 54.2 µM (inactive)
- GI50 (HOP-92): 26.1 µM (inactive)
- GI50 (HT-29): 30.8 µM (inactive)
- GI50 (Hs-578T): 31.1 µM (inactive)
- GI50 (IGROV-1): 36.3 µM (inactive)
- GI50 (K562): 22.5 µM (inactive)
- GI50 (KM12): 34.4 µM (inactive)
- GI50 (LOX IMVI): 18.2 µM (inactive)
- GI50 (M14): 42.4 µM (inactive)
- GI50 (MCF7): 36.6 µM (inactive)
- GI50 (MDA-MB-231): 24.9 µM (inactive)
- GI50 (MDA-MB-435): 34.4 µM (inactive)
- GI50 (MDA-N): 28.7 µM (inactive)
- GI50 (MOLT-4): 22.3 µM (inactive)
- GI50 (NCI-H226): 29 µM (inactive)
- GI50 (NCI-H23): 39.1 µM (inactive)
- GI50 (NCI-H460): 18.5 µM (inactive)
- GI50 (NCI-H522): 15.5 µM (inactive)
- GI50 (NCI/ADR-RES): > 100 µM (inactive)
- GI50 (OVCAR-3): 33.7 µM (inactive)
- GI50 (OVCAR-4): 61.2 µM (inactive)
- GI50 (OVCAR-5): 30 µM (inactive)
- GI50 (OVCAR-8): 35.1 µM (inactive)
- GI50 (PC-3): 29.6 µM (inactive)
- GI50 (RPMI-8226): 17.5 µM (inactive)
- GI50 (SF-268): 19.1 µM (inactive)
- GI50 (SF-295): 41.5 µM (inactive)
- GI50 (SK-MEL-28): 36 µM (inactive)
- GI50 (SK-MEL-2): 21.6 µM (inactive)
- GI50 (SK-MEL-5): 23.4 µM (inactive)
- GI50 (SN12C): 20.2 µM (inactive)
- GI50 (SNB-19): 34.7 µM (inactive)
- GI50 (SW-620): 32.1 µM (inactive)
- GI50 (T47D): 25.5 µM (inactive)
- GI50 (TK-10): 39.8 µM (inactive)
- GI50 (U-251): 36.5 µM (inactive)
- GI50 (UACC-257): 37.2 µM (inactive)
- GI50 (UACC-62): 67.8 µM (inactive)
- GI50 (UO-31): > 100 µM (inactive)

SMILES: Fc1cccc(F)c1C(Nc1nncs1)Nc1nncs1
- GI50 (786-0): > 100 µM (inactive)
- GI50 (A498): > 100 µM (inactive)
- GI50 (A549): > 100 µM (inactive)
- GI50 (ACHN): > 100 µM (inactive)
- GI50 (BT-549): > 100 µM (inactive)
- GI50 (CAKI-1): > 100 µM (inactive)
- GI50 (COLO 205): > 100 µM (inactive)
- GI50 (DU-145): > 100 µM (inactive)
- GI50 (HCC 2998): > 100 µM (inactive)
- GI50 (HCT-116): 50.5 µM (inactive)
- GI50 (HCT-15): 91.2 µM
- GI50 (HOP-62): > 100 µM (inactive)
- GI50 (HOP-92): > 100 µM (inactive)
- GI50 (HT-29): 47.2 µM (inactive)
- GI50 (Hs-578T): > 100 µM (inactive)
- GI50 (IGROV-1): > 100 µM (inactive)
- GI50 (K562): > 100 µM (inactive)
- GI50 (KM12): > 100 µM (inactive)
- GI50 (M14): 59.6 µM (inactive)
- GI50 (MCF7): 97.7 µM (inactive)
- GI50 (MDA-MB-231): > 100 µM (inactive)
- GI50 (MDA-MB-435): 51.3 µM (inactive)
- GI50 (MDA-N): 38 µM (inactive)
- GI50 (Malme-3M): > 100 µM (inactive)
- GI50 (NCI-H226): > 100 µM (inactive)
- GI50 (NCI-H23): > 100 µM (inactive)
- GI50 (NCI-H460): > 100 µM (inactive)
- GI50 (NCI-H522): > 100 µM (inactive)
- GI50 (NCI/ADR-RES): > 100 µM (inactive)
- GI50 (OVCAR-3): > 100 µM (inactive)
- GI50 (OVCAR-4): > 100 µM (inactive)
- GI50 (OVCAR-5): > 100 µM (inactive)
- GI50 (OVCAR-8): > 100 µM (inactive)
- GI50 (PC-3): > 100 µM (inactive)
- GI50 (RPMI-8226): > 100 µM (inactive)
- GI50 (RXF 393): > 100 µM (inactive)
- GI50 (SF-268): > 100 µM (inactive)
- GI50 (SF-295): > 100 µM (inactive)
- GI50 (SF-539): 49 µM (inactive)
- GI50 (SK-MEL-28): > 100 µM (inactive)
- GI50 (SK-MEL-2): > 100 µM (inactive)
- GI50 (SK-MEL-5): > 100 µM (inactive)
- GI50 (SK-OV-3): > 100 µM (inactive)
- GI50 (SN12C): > 100 µM (inactive)
- GI50 (SNB-19): > 100 µM (inactive)
- GI50 (SNB-75): > 100 µM (inactive)
- GI50 (SW-620): 86.7 µM (inactive)
- GI50 (T47D): > 100 µM (inactive)
- GI50 (TK-10): > 100 µM (inactive)
- GI50 (U-251): > 100 µM (inactive)
- GI50 (UACC-257): > 100 µM (inactive)
- GI50 (UACC-62): > 100 µM (inactive)
- GI50 (UO-31): > 100 µM (inactive)
